Experiments:
Assay type in all cases: functional
Enterococcus faecalis [1] = assay: Antibacterial activity against Streptococcus faecalis assessed as bacterial growth inhibition in presence of 50 ug/ml calcium ions by CLSI protocol based broth microdilution method
Staphylococcus aureus [2] = assay: Antibacterial activity against methicillin-resistant Staphylococcus aureus 88 assessed as bacterial growth inhibition in presence of 50 ug/ml calcium ions by CLSI protocol based broth microdilution method
Staphylococcus aureus [3] = assay: Antibacterial activity against methicillin-resistant Staphylococcus aureus 14 assessed as bacterial growth inhibition in presence of 50 ug/ml calcium ions by CLSI protocol based broth microdilution method
Staphylococcus aureus [4] = assay: Antibacterial activity against methicillin-resistant Staphylococcus aureus 11 assessed as bacterial growth inhibition in presence of 50 ug/ml calcium ions by CLSI protocol based broth microdilution method
Staphylococcus aureus [5] = assay: Antibacterial activity against methicillin-resistant Staphylococcus aureus 86 assessed as bacterial growth inhibition in presence of 50 ug/ml calcium ions by CLSI protocol based broth microdilution method
Enterococcus [6] = assay: Antibacterial activity against Enterococcus 60 assessed as bacterial growth inhibition in presence of 50 ug/ml calcium ions by CLSI protocol based broth microdilution method
Staphylococcus aureus [7] = assay: Antibacterial activity against Staphylococcus aureus ATCC 29213 assessed as bacterial growth inhibition in presence of 50 ug/ml calcium ions by CLSI protocol based broth microdilution method
Enterococcus faecalis [8] = assay: Antibacterial activity against Enterococcus faecalis ATCC 29212 assessed as bacterial growth inhibition in presence of 50 ug/ml calcium ions by CLSI protocol based broth microdilution method
Enterococcus [9] = assay: Antibacterial activity against Enterococcus 6 assessed as bacterial growth inhibition in presence of 50 ug/ml calcium ions by CLSI protocol based broth microdilution method

Compound	MIC (Enterococcus faecalis [1])	MIC (Staphylococcus aureus [2])	MIC (Staphylococcus aureus [3])	MIC (Staphylococcus aureus [4])	MIC (Staphylococcus aureus [5])	MIC (Enterococcus [6])	MIC (Staphylococcus aureus [7])	MIC (Enterococcus faecalis [8])	MIC (Enterococcus [9])
CCCCCCCCCC(=O)N[C@@H](Cc1c[nH]c2ccccc12)C(=O)N[C@@H](CC(N)=O)C(=O)N[C@@H](CC(=O)O)C(=O)N[C@@H]1C(=O)NCC(=O)N[C@@H](CCCN)C(=O)N[C@@H](CC(=O)O)C(=O)N[C@H](C)C(=O)N[C@@H](CC(=O)O)C(=O)N(C)CC(=O)N[C@H](CO)C(=O)N[C@@H]([C@@H](C)CC(=O)O)C(=O)N[C@@H](CC(=O)c2ccccc2N)C(=O)O[C@@H]1C	≥ 32 µg/mL	≥ 32 µg/mL	≥ 32 µg/mL	≥ 32 µg/mL	≥ 32 µg/mL	≥ 32 µg/mL	≥ 32 µg/mL	≥ 32 µg/mL	≥ 32 µg/mL
CCCCCCCCCC(=O)N[C@@H](Cc1c[nH]c2ccccc12)C(=O)N[C@@H](CC(N)=O)C(=O)N[C@@H](CC(=O)O)C(=O)N[C@@H]1C(=O)NCC(=O)N[C@@H](CCCN)C(=O)N[C@@H](CC(=O)O)C(=O)N[C@@H](C)C(=O)N[C@@H](CC(=O)O)C(=O)NCC(=O)N[C@H](CO)C(=O)N[C@@H]([C@@H](C)CC(=O)O)C(=O)N[C@@H](CC(=O)c2ccccc2N)C(=O)O[C@@H]1C	≥ 64 µg/mL	≥ 64 µg/mL	≥ 64 µg/mL	≥ 64 µg/mL	≥ 64 µg/mL	≥ 64 µg/mL	≥ 64 µg/mL	≥ 64 µg/mL	≥ 64 µg/mL
CCCCCCCCCC(=O)N[C@@H](Cc1c[nH]c2ccccc12)C(=O)N[C@@H](CC(N)=O)C(=O)N[C@@H](CC(=O)O)C(=O)N[C@@H]1C(=O)NCC(=O)N[C@@H](CCCN)C(=O)N[C@@H](CCC(=O)O)C(=O)N[C@H](C)C(=O)N[C@@H](CCC(=O)O)C(=O)NCC(=O)N[C@H](CO)C(=O)N[C@@H]([C@@H](C)CC(=O)O)C(=O)N[C@@H](CC(=O)c2ccccc2N)C(=O)O[C@@H]1C	≥ 32 µg/mL	≥ 32 µg/mL	≥ 32 µg/mL	≥ 32 µg/mL	≥ 32 µg/mL	≥ 32 µg/mL	≥ 32 µg/mL	≥ 32 µg/mL	≥ 32 µg/mL
CCCCCCCCCC(=O)N[C@@H](Cc1ccc2ccccc2c1)C(=O)N[C@@H](CC(N)=O)C(=O)N[C@@H](CC(=O)O)C(=O)N[C@@H]1C(=O)NCC(=O)N[C@@H](CCCN)C(=O)N[C@@H](CC(=O)O)C(=O)N[C@H](C)C(=O)N[C@@H](CC(=O)O)C(=O)NCC(=O)N[C@H](CO)C(=O)N[C@@H]([C@@H](C)CC(=O)O)C(=O)N[C@@H](CC(=O)c2ccccc2N)C(=O)O[C@@H]1C	0.25 µg/mL	0.125 µg/mL	0.125 µg/mL	0.5 µg/mL	0.06 µg/mL	0.5 µg/mL	0.25 µg/mL	1 µg/mL	4 µg/mL
CCCCCCCCCC(=O)N[C@@H](Cc1c[nH]c2ccccc12)C(=O)N[C@@H](C)C(=O)N[C@@H](CC(=O)O)C(=O)N[C@@H]1C(=O)NCC(=O)N[C@@H](CCCN)C(=O)N[C@@H](CC(=O)O)C(=O)N[C@H](C)C(=O)N[C@@H](CC(=O)O)C(=O)NCC(=O)N[C@H](CO)C(=O)N[C@@H]([C@@H](C)CC(=O)O)C(=O)N[C@@H](CC(=O)c2ccccc2N)C(=O)O[C@@H]1C	16 µg/mL	16 µg/mL	≥ 32 µg/mL	≥ 32 µg/mL	≥ 32 µg/mL	32 µg/mL	≥ 32 µg/mL	64 µg/mL	64 µg/mL
CCCCCCCCCC(=O)N[C@@H](Cc1ccc(OC)cc1)C(=O)N[C@@H](CC(N)=O)C(=O)N[C@@H](CC(=O)O)C(=O)N[C@@H]1C(=O)NCC(=O)N[C@@H](CCCN)C(=O)N[C@@H](CC(=O)O)C(=O)N[C@H](C)C(=O)N[C@@H](CC(=O)O)C(=O)NCC(=O)N[C@H](CO)C(=O)N[C@@H]([C@@H](C)CC(=O)O)C(=O)N[C@@H](CC(=O)c2ccccc2N)C(=O)O[C@@H]1C	8 µg/mL	2 µg/mL	4 µg/mL	16 µg/mL	2 µg/mL	≥ 32 µg/mL	2 µg/mL	≥ 32 µg/mL	≥ 32 µg/mL
CCCCCCCCCC(=O)N[C@@H](Cc1cccc2ccccc12)C(=O)N[C@@H](CC(N)=O)C(=O)N[C@@H](CC(=O)O)C(=O)N[C@@H]1C(=O)NCC(=O)N[C@@H](CCCN)C(=O)N[C@@H](CC(=O)O)C(=O)N[C@H](C)C(=O)N[C@@H](CC(=O)O)C(=O)NCC(=O)N[C@H](CO)C(=O)N[C@@H]([C@@H](C)CC(=O)O)C(=O)N[C@@H](CC(=O)c2ccccc2N)C(=O)O[C@@H]1C	0.5 µg/mL	0.125 µg/mL	0.25 µg/mL	1 µg/mL	0.25 µg/mL	2 µg/mL	0.25 µg/mL	2 µg/mL	2 µg/mL
